This is an account of results in patent publication US11214803B2, “Modulators of YAP1 expression” (Ionis Pharmaceuticals, Inc., priority 2019, dated 2022).

Strand notation (5' to 3'): a small letter for the sugar, then the base; units joined by * are phosphorothioate-linked, units joined directly phosphodiester-linked; [ ] holds rarer units or linkages, { } end groups; capitals alone tell only the bases. k = constrained ethyl (cEt); [5mC] = 5-methylcytosine; d = 2'-deoxy (DNA)

The subject of the first data set is Yap1 mRNA. The experiment in a line: Antisense inhibition of human Yap1 in A-431 cells by cEt gapmers, single dose (Example 2, RTS4814). The format is cell-based. Particulars: Table 18; A-431 cells, 5,000 cells per well, free uptake, 2,000 nM modified oligonucleotide, approx. 48 hours; RTS4814; normalized to RIBOGREEN; Yap1 mRNA as percent of untreated control. In short, it runs like this:
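A-431 cells (5,000/well) received 2,000 nM oligonucleotide by free uptake for about 48 h. Yap1 mRNA was then quantified by RT-qPCR with primer probe set RTS4814, normalized to RIBOGREEN total RNA, and reported as % of untreated control; asterisked values mark oligos inside the amplicon.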
Regarding “1075684 (kT*k[5mC]*kT*dG*dA*dA*dA*dA*dA*dG*dT*dT*dA*kT*kG*k[5mC]; antisense) [Compound 1075684]”, the “YAP1 (% UTC)” value was 78 % UTC.

In the case of “1075716 (kG*k[5mC]*k[5mC]*dG*dA*dA*dA*dT*dA*d[5mC]*dT*d[5mC]*dT*k[5mC]*kA*kT; antisense) [Compound 1075716]”, the “YAP1 (% UTC)” value is given as 19 % UTC.

Regarding “1075748 (kG*kT*kA*dA*dA*dT*d[5mC]*dA*dA*dG*dT*dT*dG*k[5mC]*kA*kT; antisense) [Compound 1075748]”, the “YAP1 (% UTC)” value was 7 % UTC.

For “1075780 (kT*kA*kT*dA*dA*dT*dA*dA*dT*d[5mC]*d[5mC]*dA*dG*kA*kA*k[5mC]; antisense) [Compound 1075780]”, the “YAP1 (% UTC)” value turned out to be 98 % UTC.

Still in this data set, the particulars now being: Table 19; A-431 cells, 5,000 cells per well, free uptake, 2,000 nM modified oligonucleotide, approx. 48 hours; RTS4814; normalized to RIBOGREEN; Yap1 mRNA as percent of untreated control.
For the substance “1075685 (k[5mC]*kA*kT*dA*dA*dT*d[5mC]*dA*dA*dA*dG*dG*dG*kT*kG*k[5mC]; antisense) [Compound 1075685]”, the “YAP1 (% UTC)” value is listed as 60 % UTC.

“1075717 (k[5mC]*kA*kT*dA*dA*dA*dT*dT*dT*d[5mC]*dA*dG*d[5mC]*k[5mC]*kG*kA; antisense) [Compound 1075717]”: the “YAP1 (% UTC)” value is recorded as 10 % UTC.

For “1075749 (kA*kA*kT*dT*dA*dT*dG*dA*dA*dT*dG*dA*dT*kG*kG*kG; antisense) [Compound 1075749]”, the “YAP1 (% UTC)” value is 4 % UTC.

As to “1075781 (k[5mC]*kA*kT*dA*dT*dA*dT*dT*dG*dT*dG*dA*d[5mC]*kT*kT*k[5mC]; antisense) [Compound 1075781]”, the “YAP1 (% UTC)” value worked out at 2 % UTC.

Staying with this data set, now noted: Table 20; Yap1 mRNA, percent of untreated control; 3-10-3 cEt gapmers targeting SEQ ID NO.: 1 and 2.
With “1075686 (kG*kT*kA*dA*dT*dT*dA*d[5mC]*dA*dG*dT*dG*dT*k[5mC]*kT*k[5mC]; antisense) [Compound 1075686]”, the “YAP1 (% UTC)” value worked out at 10 % UTC.

For “1075718 (k[5mC]*k[5mC]*kA*d[5mC]*dT*dA*dA*dA*dA*d[5mC]*d[5mC]*dA*dA*kG*kT*kT; antisense) [Compound 1075718]”, the “YAP1 (% UTC)” value worked out at 48 % UTC.

Consider “1075750 (k[5mC]*kA*kA*dT*dT*dA*dT*dG*dA*dA*dT*dG*dA*kT*kG*kG; antisense) [Compound 1075750]”, for which the “YAP1 (% UTC)” value was 10 % UTC.

On to “1075782 (kT*kA*kT*dT*dA*dG*dG*dT*dT*dT*d[5mC]*d[5mC]*d[5mC]*kG*kT*kT; antisense) [Compound 1075782]”, for which the “YAP1 (% UTC)” value is recorded as 10 % UTC.

The data set is the same for the next values; noted with them: Table 21; Yap1 mRNA, percent of untreated control; 3-10-3 cEt gapmers targeting SEQ ID NO.: 1 and 2.
“1075687 (kT*kA*kA*dA*d[5mC]*dG*dA*dG*dT*dA*dA*dT*dG*kA*k[5mC]*kT; antisense) [Compound 1075687]”: the “YAP1 (% UTC)” value stood at 23 % UTC.

On to “1075719 (k[5mC]*kT*kA*dA*dA*dA*d[5mC]*d[5mC]*dG*dG*d[5mC]*dT*dG*kG*kA*k[5mC]; antisense) [Compound 1075719]”, for which the “YAP1 (% UTC)” value amounted to 76 % UTC.

For the substance “1075751 (kG*kA*kG*dG*dA*dA*d[5mC]*dA*dA*dG*dA*dT*d[5mC]*kT*k[5mC]*kA; antisense) [Compound 1075751]”, the “YAP1 (% UTC)” value is recorded as 72 % UTC.

For the substance “1075783 (k[5mC]*kT*kT*dA*dA*dT*dT*dT*dA*d[5mC]*d[5mC]*dT*dG*kA*kA*k[5mC]; antisense) [Compound 1075783]”, the “YAP1 (% UTC)” value is reported as 36 % UTC.

The data set is the same for the next values; noted with them: Table 22; Yap1 mRNA as percent of untreated control; 3-10-3 cEt gapmers; single dose.
“1075688 (kG*kA*k[5mC]*dA*dA*dT*dA*dA*dA*d[5mC]*dA*dT*d[5mC]*kA*k[5mC]*k[5mC]; antisense) [Compound 1075688]”: the “YAP1 (% UTC)” value came to 12 % UTC.

In the case of “1075720 (k[5mC]*kT*kT*dT*dA*d[5mC]*dT*dA*d[5mC]*dA*dT*dA*dT*kA*kG*k[5mC]; antisense) [Compound 1075720]”, the “YAP1 (% UTC)” value is 47 % UTC.

As for “1075752 (k[5mC]*kA*kT*dA*dA*dT*dT*dA*dT*dA*d[5mC]*dT*dG*kA*kT*k[5mC]; antisense) [Compound 1075752]”, the “YAP1 (% UTC)” value stood at 19 % UTC.

In the case of “1075784 (kA*kT*kT*dT*dT*dA*dT*dA*dG*dG*dG*d[5mC]*d[5mC]*kA*kT*kT; antisense) [Compound 1075784]”, the “YAP1 (% UTC)” value is 3 % UTC.

Still in this data set, the particulars now being: Table 23; Yap1 mRNA as percent of untreated control; 3-10-3 cEt gapmers; single dose.
Regarding “1075689 (k[5mC]*kA*kA*d[5mC]*dT*dA*dT*dA*d[5mC]*dA*dA*dG*dG*k[5mC]*kA*kA; antisense) [Compound 1075689]”, the “YAP1 (% UTC)” value is 4 % UTC.

As for “1075721 (kT*kT*kA*dA*dA*dT*dA*d[5mC]*d[5mC]*dT*dT*d[5mC]*dT*kA*kG*k[5mC]; antisense) [Compound 1075721]”, the “YAP1 (% UTC)” value was determined as 67 % UTC.

“1075753 (k[5mC]*kT*kA*dG*dA*dA*d[5mC]*d[5mC]*dT*dT*dT*dT*d[5mC]*k[5mC]*kA*kG; antisense) [Compound 1075753]”: the “YAP1 (% UTC)” value is given as 65 % UTC.

For the substance “1075785 (k[5mC]*kA*kT*dT*dT*dT*dA*dT*dA*dG*dG*dG*d[5mC]*k[5mC]*kA*kT; antisense) [Compound 1075785]”, the “YAP1 (% UTC)” value came to 2 % UTC.

Staying with this data set, now noted: Table 24; Yap1 mRNA as percent of untreated control; 3-10-3 cEt gapmers targeting SEQ ID NO.: 1, and 2.
For the substance “1075690 (k[5mC]*kG*kT*dT*dA*dA*d[5mC]*dA*dA*d[5mC]*dT*dA*dT*kA*k[5mC]*kA; antisense) [Compound 1075690]”, the “YAP1 (% UTC)” value is on record as 33 % UTC.

As to “1075722 (kG*kT*kT*dA*dA*dA*dT*dA*d[5mC]*d[5mC]*dT*dT*d[5mC]*kT*kA*kG; antisense) [Compound 1075722]”, the “YAP1 (% UTC)” value was 88 % UTC.

Take “1075754 (k[5mC]*kT*kT*dA*dA*dA*dT*dG*dG*d[5mC]*dA*d[5mC]*dA*kG*kT*kT; antisense) [Compound 1075754]”: the “YAP1 (% UTC)” value is 20 % UTC.

Still in this data set, the particulars now being: Table 25; Yap1 mRNA as percent of untreated control; 3-10-3 cEt gapmers targeting SEQ ID NO.: 1, and 2.
Consider “1075691 (k[5mC]*kG*kT*d[5mC]*dA*dA*dA*dA*dT*dT*dA*dA*d[5mC]*kA*kG*kA; antisense) [Compound 1075691]”, for which the “YAP1 (% UTC)” value turned out to be 46 % UTC.

As for “1075723 (kT*kT*kA*dT*d[5mC]*d[5mC]*dT*dA*dT*d[5mC]*d[5mC]*d[5mC]*dT*kG*kG*kT; antisense) [Compound 1075723]”, the “YAP1 (% UTC)” value is listed as 32 % UTC.

On to “1075755 (kA*k[5mC]*kT*dT*dA*dA*dA*dT*dG*dG*d[5mC]*dA*d[5mC]*kA*kG*kT; antisense) [Compound 1075755]”, for which the “YAP1 (% UTC)” value is 73 % UTC.

The data set is the same for the next values; noted with them: Table 32; Yap1 mRNA, percent of untreated control; 3-10-3 cEt gapmers targeting SEQ ID NO.: 1, and 2.
Take “1075666 (antisense kA*kA*kA*dT*dT*dT*dA*dG*dT*dT*dG*dT*dG*k[5mC]*kA*k[5mC]) [compound 1075666]”: the “YAP1 (% UTC)” value is recorded as 106 % UTC.

Take “1075698 (kG*kT*kT*dT*dA*dA*dT*dA*dA*dT*d[5mC]*d[5mC]*dA*kT*kG*k[5mC]; antisense) [compound 1075698]”: the “YAP1 (% UTC)” value turned out to be 10 % UTC.

With “1075730 (kG*kT*kA*dT*dT*dT*dA*dA*dA*dA*dA*dT*dA*kG*k[5mC]*kG; antisense) [compound 1075730]”, the “YAP1 (% UTC)” value is recorded as 92 % UTC.

With “1075762 (kG*kA*kT*dA*dA*dA*dT*dG*dG*dG*dT*dT*dG*kA*kT*kT; antisense) [compound 1075762]”, the “YAP1 (% UTC)” value was found to be 20 % UTC.

The same data set, now with this note: Table 33; Yap1 mRNA, percent of untreated control; 3-10-3 cEt gapmers targeting SEQ ID NO.: 1, and 2.
“1075667 (antisense k[5mC]*kA*kA*dA*dT*dT*dT*dA*dG*dT*dT*dG*dT*kG*k[5mC]*kA) [compound 1075667]”: the “YAP1 (% UTC)” value amounted to 109 % UTC.

Turning to “1075731 (k[5mC]*k[5mC]*k[5mC]*d[5mC]*dA*dA*dT*dA*dT*dT*dA*dT*d[5mC]*kT*kA*k[5mC]; antisense) [compound 1075731]”, the “YAP1 (% UTC)” value came to 40 % UTC.

For the substance “1075763 (kA*kT*kT*dT*dA*dG*dG*d[5mC]*dT*dT*dT*dG*dG*kG*kT*kT; antisense) [compound 1075763]”, the “YAP1 (% UTC)” value was found to be 16 % UTC.

Staying with this data set, now noted: Yap1 mRNA as percent of untreated control; A-431 cells; 3-10-3 cEt gapmers targeting SEQ ID NO.: 1, and 2; Table 30.
For the substance “1075664 (antisense kG*k[5mC]*kT*dA*dA*dA*dT*dA*dG*dG*dT*dG*dG*kT*kT*kA) [compound 1075664]”, the “YAP1 (% UTC)” value came out at 87 % UTC.

In the case of “1075696 (kT*kT*kA*d[5mC]*dA*dA*dA*dA*dG*dT*dT*dA*d[5mC]*kT*kG*k[5mC]; antisense) [compound 1075696]”, the “YAP1 (% UTC)” value is 28 % UTC.

Regarding “1075728 (k[5mC]*kT*kT*dT*dA*dT*d[5mC]*dG*dG*dA*dG*dG*d[5mC]*kT*kT*k[5mC]; antisense) [compound 1075728]”, the “YAP1 (% UTC)” value was 15 % UTC.

Turning to “1075760 (kG*kA*kG*dA*dA*dA*dA*dA*d[5mC]*dT*dA*d[5mC]*dG*kG*kA*kT; antisense) [compound 1075760]”, the “YAP1 (% UTC)” value was 39 % UTC.

The data set is the same for the next values; noted with them: Yap1 mRNA as percent of untreated control; A-431 cells; 3-10-3 cEt gapmers targeting SEQ ID NO.: 1, and 2; Table 31.
Regarding “1075665 (antisense kA*kT*kT*dT*dA*dG*dT*dT*dG*dT*dG*d[5mC]*dA*k[5mC]*kA*kG) [compound 1075665]”, the “YAP1 (% UTC)” value is 87 % UTC.

As for “1075697 (kA*kA*kT*dA*dA*dT*d[5mC]*d[5mC]*dA*dT*dG*d[5mC]*dT*kT*kG*k[5mC]; antisense) [compound 1075697]”, the “YAP1 (% UTC)” value is 16 % UTC.

For “1075729 (kT*kA*kT*dT*dT*dA*dA*dA*dA*dA*dT*dA*dG*k[5mC]*kG*k[5mC]; antisense) [compound 1075729]”, the “YAP1 (% UTC)” value is given as 88 % UTC.

Turning to “1075761 (kG*kG*kA*dG*dA*dA*dA*dA*dA*d[5mC]*dT*dA*d[5mC]*kG*kG*kA; antisense) [compound 1075761]”, the “YAP1 (% UTC)” value is on record as 13 % UTC.
